Measured values reported in patent publication US20220000798A1, “TRANS-RESVERATROL TOPICAL MEDICATION FOR THE TREATMENT OF PAIN AND METHOD OF MANUFACTURE THEREOF” (Ted's Brain Science, Inc., priority 2017, published 2022).

Tests used:
AMPK = AMPK activation by resveratrol isomers; assay type: biochemical; conditions: isomer of resveratrol
Excerpt: It is thus realized herein that including cis-resveratrol in a topical medication would be particularly disadvantageous, because it would contribute to the grainy or greasy feeling of the medication without contributing to its AMPK-activating efficacy.

[1] = storage stability of trans-resveratrol powder; assay type: physicochemical; conditions: well-sealed containers kept away from light
Procedure: In one embodiment, trans-resveratrol is prepared in the form of off-white to cream-colored powder with >99% purity as determined by high-performance liquid chromatography (HPLC) methodology. The resulting powder has a melting point of 260-264° C.

pain = conditions: animal model (rodents); administration by injection; cited from earlier work

| stability over time [1] | Structure (SMILES) | AMPK activation (AMPK) | efficacy in mitigation of pain (pain) |
| --- | --- | --- | --- |
| – | Oc1ccc(/C=C\c2cc(O)cc(O)c2)cc1 [Cis-resveratrol] | appears not to activate AMPK to any meaningful degree or extent | – |
| over two years | Oc1ccc(/C=C/c2cc(O)cc(O)c2)cc1 [trans-resveratrol, 3,4′,5-trihydroxystilbene] | activates AMPK | – |
| – | Oc1ccc(C=Cc2cc(O)cc(O)c2)cc1 [resveratrol] | – | has shown efficacy in mitigation of pain |
